Test system: 299254-011-R-J1-PDC complex spheroid viability
Experiment: Anticancer human tumor 299254-011-R-J1-PDC patient-derived melanoma cell line growth inhibition [POLQ]
Conditions: for IC50: curve of first compound; for viability, T/C: stronger effect = lower value
In short: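 Patient-derived tumour cells were co-cultured with HUVEC and mesenchymal stem cells as multicellular spheroids at 37 °C. They were treated with POLQ inhibitors (novobiocin, ART-558, RP6685) alone or combined with other agents. Top concentrations were at or near clinical Cmax (otherwise 10 microM; SN-38 at 1 microM), decreasing in half-log steps.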

[1] = second compound 0.0316 µM, first compound 0.0316 µM
[2] = second compound 0.0316 µM, first compound 0.1 µM
[3] = second compound 0.0316 µM, first compound 0.316 µM
[4] = second compound 0.0316 µM, first compound 1 µM
[5] = second compound 0.0316 µM, first compound 3.16 µM
[6] = second compound 0.0316 µM, first compound 10 µM
[7] = second compound 0.1 µM, first compound 0.0316 µM
[8] = second compound 0.1 µM, first compound 0.1 µM
[9] = second compound 0.1 µM, first compound 0.316 µM
[10] = second compound 0.1 µM, first compound 1 µM
[11] = second compound 0.1 µM, first compound 3.16 µM
[12] = second compound 0.1 µM, first compound 10 µM
[13] = second compound 0.316 µM, first compound 0.0316 µM
[14] = second compound 0.316 µM, first compound 0.1 µM
[15] = second compound 0.316 µM, first compound 0.316 µM
[16] = second compound 0.316 µM, first compound 1 µM
[17] = second compound 0.316 µM, first compound 3.16 µM
[18] = second compound 0.316 µM, first compound 10 µM
[19] = second compound 1 µM, first compound 0.0316 µM
[20] = second compound 1 µM, first compound 0.1 µM
[21] = second compound 1 µM, first compound 0.316 µM
[22] = second compound 1 µM, first compound 1 µM
[23] = second compound 1 µM, first compound 3.16 µM
[24] = second compound 1 µM, first compound 10 µM
[25] = second compound 3.16 µM, first compound 0.0316 µM
[26] = second compound 3.16 µM, first compound 0.1 µM
[27] = second compound 3.16 µM, first compound 0.316 µM
[28] = second compound 3.16 µM, first compound 1 µM
[29] = second compound 3.16 µM, first compound 3.16 µM
[30] = second compound 3.16 µM, first compound 10 µM
[31] = second compound 10 µM, first compound 0.0316 µM
[32] = second compound 10 µM, first compound 0.1 µM
[33] = second compound 10 µM, first compound 0.316 µM
[34] = second compound 10 µM, first compound 1 µM
[35] = second compound 10 µM, first compound 3.16 µM
[36] = second compound 10 µM, first compound 10 µM
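Also: spheroids exposed to drugs for one week before measurement.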
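For viability, T/C in this document: percent viability relative to DMSO vehicle control taken as 100%.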

CNCc1ccc(-c2[nH]c3cc(F)cc4c3c2CCNC4=O)cc1 + COC1C(OC(N)=O)C(O)C(Oc2ccc3c(O)c(NC(=O)c4ccc(O)c(CC=C(C)C)c4)c(=O)oc3c2C)OC1(C)C
IC50 (second compound 0.0316 µM): > 10 µM
IC50 (second compound 0.1 µM): > 10 µM
IC50 (second compound 0.316 µM): > 10 µM
IC50 (second compound 1 µM): > 10 µM
IC50 (second compound 3.16 µM): > 10 µM
IC50 (second compound 10 µM): > 10 µM
viability, T/C [1]: 99.5%
viability, T/C [2]: 98.7%
viability, T/C [3]: 102%
viability, T/C [4]: 117%
viability, T/C [5]: 114%
viability, T/C [6]: 103%
viability, T/C [7]: 114%
viability, T/C [8]: 106%
viability, T/C [9]: 102%
viability, T/C [10]: 107%
viability, T/C [11]: 118%
viability, T/C [12]: 133%
viability, T/C [13]: 91.6%
viability, T/C [14]: 94.9%
viability, T/C [15]: 98.7%
viability, T/C [16]: 105%
viability, T/C [17]: 97.2%
viability, T/C [18]: 116%
viability, T/C [19]: 91.8%
viability, T/C [20]: 105%
viability, T/C [21]: 105%
viability, T/C [22]: 117%
viability, T/C [23]: 117%
viability, T/C [24]: 115%
viability, T/C [25]: 113%
viability, T/C [26]: 90.9%
viability, T/C [27]: 95.4%
viability, T/C [28]: 118%
viability, T/C [29]: 105%
viability, T/C [30]: 111%
viability, T/C [31]: 113%
viability, T/C [32]: 104%
viability, T/C [33]: 111%
viability, T/C [34]: 106%
viability, T/C [35]: 96.3%
viability, T/C [36]: 100%

CCCS(=O)(=O)Nc1ccc(F)c(C(=O)c2c[nH]c3ncc(-c4ccc(Cl)cc4)cc23)c1F + COC1C(OC(N)=O)C(O)C(Oc2ccc3c(O)c(NC(=O)c4ccc(O)c(CC=C(C)C)c4)c(=O)oc3c2C)OC1(C)C
IC50 (second compound 0.0316 µM): > 10 µM
IC50 (second compound 0.1 µM): > 10 µM
IC50 (second compound 0.316 µM): > 10 µM
IC50 (second compound 1 µM): > 10 µM
IC50 (second compound 3.16 µM): > 10 µM
IC50 (second compound 10 µM): > 10 µM
viability, T/C [1]: 116%
viability, T/C [2]: 94.3%
viability, T/C [3]: 107%
viability, T/C [4]: 136%
viability, T/C [5]: 107%
viability, T/C [6]: 69.6%
viability, T/C [7]: 111%
viability, T/C [8]: 97.4%
viability, T/C [9]: 118%
viability, T/C [10]: 105%
viability, T/C [11]: 123%
viability, T/C [12]: 63.8%
viability, T/C [13]: 93.6%
viability, T/C [14]: 99.2%
viability, T/C [15]: 120%
viability, T/C [16]: 117%
viability, T/C [17]: 121%
viability, T/C [18]: 68.8%
viability, T/C [19]: 94%
viability, T/C [20]: 98.4%
viability, T/C [21]: 99.2%
viability, T/C [22]: 107%
viability, T/C [23]: 118%
viability, T/C [24]: 67.5%
viability, T/C [25]: 108%
viability, T/C [26]: 113%
viability, T/C [27]: 116%
viability, T/C [28]: 126%
viability, T/C [29]: 124%
viability, T/C [30]: 82.8%
viability, T/C [31]: 106%
viability, T/C [32]: 112%
viability, T/C [33]: 110%
viability, T/C [34]: 118%
viability, T/C [35]: 118%
viability, T/C [36]: 83.4%

Source: PubChem BioAssay AID1963849 (Molecular Pharmacology Branch, DTP, NCI, 2024)
